According to patent US20240269066A1, “USE OF CYP450 INHIBITOR IN INHIBITING OR KILLING MITES AND TREATING XEROPHTHALMIA” (PRECVISION BIOTECHNOLOGIES LTD., priority 2021, published 2024):
Counter-ions that a name gives are not always drawn.

Tested on: Demodex
Assay: Acaricidal experiment: in vitro culture of Demodex with compound solutions, time to death of mites
Settings: 50 μl, 20° C., 96% humidity
Method: In this study, Demodex was collected from patients diagnosed with ocular Demodex infection. Those meeting the inclusion criteria would be enrolled after an informed conversation and signing an informed consent form.
Demodex detection was performed according to the conventional eyelash microscopic examination method. 3 eyelashes were extracted from each eyelid, and a total of 12 eyelashes were extracted. The extracted eyelashes were immediately placed on a glass slide, and one piece of each three eyelashes was placed under an ordinary light microscope for observation. Demodex at all stages were counted and classified according to morphology (specific criteria were: Demodex brevis at a head-to-body ratio of 1:1 and Demodex folliculorum at a head-to-body ratio of 1:3 to 1:4). Only adults that were fully exposed to the field of view were taken as subjects (larvae and eggs were not considered as subjects since they were more fragile in early life).
Based on the above detection of Demodex, 50 μl of different solutions were added to each slide, and the survival of the worms was observed every 1 hour. The death was judged by observing whether the worms were active (body, limbs, or the like) under a microscope. Two skilled Demodex-related experimenters observed and judged separately during the experiment. If the judgment results were different, the third skilled experimenter was asked to make an independent judgment. The culture in vitro was performed in a climate chamber at 20° C. and 96% humidity. Slides were transported in a humid chamber under observation and the solution was added appropriately to ensure high humidity before vacuoles appeared on solution evaporation.

Compound	Average survival time of mites (compound 10 mg/mL in 0.9% NaCl)	also measured
C[C@@H](c1ncncc1F)[C@](O)(Cn1cncn1)c1ccc(F)cc1F [Voriconazole]	72 h	–
Cc1cc(O)c(C(=O)CCC(C)C)c(=O)o1 [Pogostone]	1.90 ± 1.06 h	–
O=c1c(O)c(-c2ccc(O)c(O)c2)oc2cc(O)cc(O)c12 [Quercetin]	4 h	–
CCc1ccc(C)c2ccc(C)c-2c1 [Chamazulene]	11.49 ± 3.93 h	–
C[C@@H]1CC[C@H]2C(C)(C)[C@H]3C[C@@]12CC[C@@]3(C)O [Cedrol]	<20.04 ± 1.84 h	–
Cc1ccccc1C(OCCN(C)C)c1ccccc1 (stereo not drawn) [Orphenadrine Citrate]	4.35 ± 2.05 h	Average survival time of mites (compound 1 mg/mL in 0.9% NaCl): ~7.09 ± 1.44 h
COc1cc(N)c(Cl)cc1C(=O)NC1CCN(CCCOc2ccc(F)cc2)CC1OC (stereo not drawn) [Cisapride]	72 h	–
CC(=O)N1CCN(c2ccc(OCC3COC(Cn4ccnc4)(c4ccc(Cl)cc4Cl)O3)cc2)CC1 (stereo not drawn) [Ketoconazole]	97 h	–
N[C@@H]1C[C@H]1c1ccccc1 [Tranylcypromine HCl]	2.89 ± 1.08 h	Average survival time of mites (compound 1 mg/mL in 0.9% NaCl): 7.44 ± 6.07 h; Average survival time of mites (compound 3 mg/mL in 0.9% NaCl): 5.66 ± 0.91 h; Average survival time of mites (compound 30 mg/mL in 0.9% NaCl): 2.24 ± 1.32 h
Fc1ccc([C@@H]2CCNC[C@H]2COc2ccc3c(c2)OCO3)cc1 [Paroxetine]	–	Average survival time of mites (compound 1 mg/mL in 0.9% NaCl): 2.44 ± 2.04 h
Nc1ccc(S(=O)(=O)Nc2ccnn2-c2ccccc2)cc1 [Sulfaphenazole]	70 h	–
COc1cc(/C=C/C(=O)CC(=O)/C=C/c2ccc(O)c(OC)c2)ccc1O [Curcumin]	45 h	–
COC(=O)[C@H](c1ccccc1Cl)N1CCc2sccc2C1 [Clopidogrel Bisulfate]	23 h	–
S=P(N1CC1)(N1CC1)N1CC1 [Thiotepa]	22 h	–
CCOC(=O)C1=C(C)NC(C)=C(C(=O)OC)C1c1cccc(Cl)c1Cl (stereo not drawn) [Felodipine]	71 h	–
alpha-bisabolol	7.60 ± 2.60 h	–
N#Cc1ccc(C(c2ccc(C#N)cc2)n2cncn2)cc1 [Letrozole]	72 h	–
Cc1ncc([N+](=O)[O-])n1CCO [Metronidazole]	67 h	–
CN[C@H]1CC[C@@H](c2ccc(Cl)c(Cl)c2)c2ccccc21 [Sertraline HCl]	2.50 ± 1.37 h	Average survival time of mites (compound 1 mg/mL in 0.9% NaCl): 9.07 ± 6.72 h
CC(C)(O)c1ccccc1CC[C@@H](SCC1(CC(=O)O)CC1)c1cccc(/C=C/c2ccc3ccc(Cl)cc3n2)c1 [Montelukast Sodium]	5 h	–
Clc1ccccc1C(c1ccccc1)(c1ccccc1)n1ccnc1 [Clotrimazole]	–	Average survival time of mites (compound 0.3 mg/mL in 0.9% NaCl): ~33.01 h; Average survival time of mites (compound 3 mg/mL in 0.9% NaCl): ~23.63 h
CCC(C)n1ncn(-c2ccc(N3CCN(c4ccc(OCC5COC(Cn6cncn6)(c6ccc(Cl)cc6Cl)O5)cc4)CC3)cc2)c1=O (stereo not drawn) [Itraconazole]	96 h	–
C=C1CC[C@@]23C[C@@H]1C(C)(C)[C@@H]2CC[C@H]3C [β-cedrene]	42.57 ± 8.89 h	–
CN/C(=N/CCSCc1nc[nH]c1C)NC#N [Cimetidine]	53 h	–
CC12CC3CC(C)(C1)CC(N)(C3)C2 [Memantine HCl]	17 h	–
C=C[C@H]1C[N@@]2CC[C@H]1C[C@@H]2[C@@H](O)c1ccnc2ccc(OC)cc12 [Quinidine sulfate]	5 h	Average survival time of mites (compound 1 mg/mL in 0.9% NaCl): 8.33 ± 4.02 h; Average survival time of mites (compound 5 mg/mL in 0.9% NaCl): 5.35 ± 2.09 h
CO[C@@H]1[C@H](N(C)C(=O)c2ccccc2)C[C@H]2O[C@]1(C)n1c3ccccc3c3c4c(c5c6ccccc6n2c5c31)C(=O)NC4 [Midostaurin]	42 h	–
COc1c2occc2cc2ccc(=O)oc12 [Methoxsalen]	18 h	–
